Source: ChEMBL document CHEMBL1151636, “Atractyloside, toxic compound from Wedelia glauca” (J Nat Prod, 1984)

System: Mus musculus
Test: Toxicity in ip dosed mouse assessed as respiratory arrest
Format: organism-based
Details: in vivo

For `C=C1[C@@H]2CCC3[C@@](CC[C@@H]4[C@H](C(=O)O)C[C@@H](O[C@@H]5O[C@H](CO)[C@@H](OS(=O)(=O)[O-])[C@H](OS(=O)(=O)[O-])[C@H]5OC(=O)CC(C)C)C[C@@]34C)(C2)[C@@H]1O.[K+].[K+]` (stereo partly specified) [ATRACTYLOSIDE], the Activity was “Toxic”.
